# Measurements reported in ChEMBL document CHEMBL3525908, “Chronic doxorubicin cardiotoxicity modulates cardiac cytochrome P450-mediated arachidonic acid metabolism in rats” (Drug Metab Dispos, 2012).
# What was measured:
# [1] = system: Rattus norvegicus; assay: Cardiotoxicity in Sprague-Dawley rat assessed as increase in CYP4F4 gene expression level administered as cumulative dose of 15 mg/kg, ip divided into 6 injections for 2 weeks followed by compound washout period of 14 days by RT-PCR analysis relative to control; assay type: toxicity, organism-based; set-up: dose 15 mg/kg, route intraperitoneal; settings: in vivo, 336 h
# [2] = system: H9c2; assay: Cytotoxicity against rat H9c2 cells assessed as reduction in BNP mRNA expression at 1 uM after 6 hrs in presence of HET0016; assay type: cell-based; settings: h9c2, 6 h
# [3] = system: H9c2; assay: Cytotoxicity against rat H9c2 cells assessed as reduction in BNP mRNA expression at 1 uM after 6 hrs; assay type: cell-based; settings: h9c2, 6 h
# [4] = system: CYP1A1; assay: Toxicity in Sprague-Dawley rat assessed as induction of CYP1A1 gene expression in liver administered as cumulative dose of 15 mg/kg, ip divided into 6 injections for 2 weeks followed by compound washout period of 14 days by RT-PCR analysis relative to control; assay type: organism-based; set-up: dose 15 mg/kg, route intraperitoneal
# [5] = system: Rattus norvegicus; assay: Cardiotoxicity in Sprague-Dawley rat assessed as increase in CYP1A1 gene expression level administered as cumulative dose of 15 mg/kg, ip divided into 6 injections for 2 weeks followed by compound washout period of 14 days by RT-PCR analysis relative to control; assay type: toxicity, organism-based; set-up: dose 15 mg/kg, route intraperitoneal; settings: in vivo, 336 h
# [6] = system: CYP4F5; assay: Cardiotoxicity in Sprague-Dawley rat assessed as increase in CYP4F5 gene expression level administered as cumulative dose of 15 mg/kg, ip divided into 6 injections for 2 weeks followed by compound washout period of 14 days by RT-PCR analysis relative to control; assay type: toxicity, organism-based; set-up: dose 15 mg/kg, route intraperitoneal; settings: heart
# [7] = system: Rattus norvegicus; assay: Cardiotoxicity in Sprague-Dawley rat assessed as increase in ANP gene expression level administered as cumulative dose of 15 mg/kg, ip divided into 6 injections for 2 weeks followed by compound washout period of 14 days by RT-PCR analysis relative to control; assay type: toxicity, organism-based; set-up: dose 15 mg/kg, route intraperitoneal; settings: 336 h
# [8] = system: Rattus norvegicus; assay: Toxicity in Sprague-Dawley rat assessed as induction of TNF-alpha gene expression in liver administered as cumulative dose of 15 mg/kg, ip divided into 6 injections for 2 weeks followed by compound washout period of 14 days by RT-PCR analysis relative to control; assay type: organism-based; set-up: dose 15 mg/kg, route intraperitoneal; settings: 336 h
# [9] = system: EPHX2; assay: Cardiotoxicity in Sprague-Dawley rat assessed as increase in EPHX2 gene expression level administered as cumulative dose of 15 mg/kg, ip divided into 6 injections for 2 weeks followed by compound washout period of 14 days by RT-PCR analysis relative to control; assay type: toxicity, organism-based; set-up: dose 15 mg/kg, route intraperitoneal; settings: heart
# [10] = system: Rattus norvegicus; assay: Toxicity in Sprague-Dawley rat assessed as CYP4F1 gene expression in kidney administered as cumulative dose of 15 mg/kg, ip divided into 6 injections for 2 weeks followed by compound washout period of 14 days by RT-PCR analysis relative to control; assay type: organism-based; set-up: dose 15 mg/kg, route intraperitoneal; settings: in vivo, 336 h
# [11] = system: Rattus norvegicus; assay: Toxicity in Sprague-Dawley rat assessed as induction of TNF-alpha gene expression in kidney administered as cumulative dose of 15 mg/kg, ip divided into 6 injections for 2 weeks followed by compound washout period of 14 days by RT-PCR analysis relative to control; assay type: organism-based; set-up: dose 15 mg/kg, route intraperitoneal; settings: 336 h
# [12] = system: Rattus norvegicus; assay: Toxicity in Sprague-Dawley rat assessed as CYP2E1 gene expression in liver administered as cumulative dose of 15 mg/kg, ip divided into 6 injections for 2 weeks followed by compound washout period of 14 days by RT-PCR analysis relative to control; assay type: organism-based; set-up: dose 15 mg/kg, route intraperitoneal; settings: in vivo, 336 h
# [13] = system: Rattus norvegicus; assay: Toxicity in Sprague-Dawley rat assessed as sEH gene expression in liver administered as cumulative dose of 15 mg/kg, ip divided into 6 injections for 2 weeks followed by compound washout period of 14 days by RT-PCR analysis; assay type: organism-based; set-up: dose 15 mg/kg, route intraperitoneal; settings: in vivo, 336 h
# [14] = system: CYP4F5; assay: Toxicity in Sprague-Dawley rat assessed as induction of CYP4F5 gene expression in liver administered as cumulative dose of 15 mg/kg, ip divided into 6 injections for 2 weeks followed by compound washout period of 14 days by RT-PCR analysis relative to control; assay type: organism-based; set-up: dose 15 mg/kg, route intraperitoneal
# [15] = system: Rattus norvegicus; assay: Cardiotoxicity in Sprague-Dawley rat assessed as increase in CYP4A1 gene expression level administered as cumulative dose of 15 mg/kg, ip divided into 6 injections for 2 weeks followed by compound washout period of 14 days by RT-PCR analysis relative to control; assay type: toxicity, organism-based; set-up: dose 15 mg/kg, route intraperitoneal; settings: in vivo, 336 h
# [16] = system: Rattus norvegicus; assay: Toxicity in Sprague-Dawley rat assessed as CYP1A2 gene expression in kidney administered as cumulative dose of 15 mg/kg, ip divided into 6 injections for 2 weeks followed by compound washout period of 14 days by RT-PCR analysis relative to control; assay type: organism-based; set-up: dose 15 mg/kg, route intraperitoneal; settings: in vivo, 336 h
# [17] = system: Rattus norvegicus; assay: Toxicity in Sprague-Dawley rat assessed as inhibition of CYP2B2 gene expression in kidney administered as cumulative dose of 15 mg/kg, ip divided into 6 injections for 2 weeks followed by compound washout period of 14 days by RT-PCR analysis relative to control; assay type: organism-based; set-up: dose 15 mg/kg, route intraperitoneal; settings: in vivo, 336 h
# [18] = system: Rattus norvegicus; assay: Toxicity in Sprague-Dawley rat assessed as CYP2E1 gene expression in kidney administered as cumulative dose of 15 mg/kg, ip divided into 6 injections for 2 weeks followed by compound washout period of 14 days by RT-PCR analysis relative to control; assay type: organism-based; set-up: dose 15 mg/kg, route intraperitoneal; settings: in vivo, 336 h
# [19] = system: Rattus norvegicus; assay: Toxicity in Sprague-Dawley rat assessed as CYP2C11 gene expression in kidney administered as cumulative dose of 15 mg/kg, ip divided into 6 injections for 2 weeks followed by compound washout period of 14 days by RT-PCR analysis relative to control; assay type: organism-based; set-up: dose 15 mg/kg, route intraperitoneal; settings: in vivo, 336 h
# [20] = system: Rattus norvegicus; assay: Toxicity in Sprague-Dawley rat assessed as CYP4A1 gene expression in kidney administered as cumulative dose of 15 mg/kg, ip divided into 6 injections for 2 weeks followed by compound washout period of 14 days by RT-PCR analysis relative to control; assay type: organism-based; set-up: dose 15 mg/kg, route intraperitoneal; settings: in vivo, 336 h
# [21] = system: Rattus norvegicus; assay: Induction of […]-mediated arachidonic acid metabolism in Sprague-Dawley rat heart microsomes assessed as 20-HETE formation administered as cumulative dose of 15 mg/kg, ip divided into 6 injections for 2 weeks followed by compound washout period of 14 days by LC-ESI-MS analysis relative to control; assay type: ADME, organism-based; set-up: dose 15 mg/kg, route intraperitoneal; settings: 336 h
# [22] = system: H9c2; assay: Cytotoxicity against rat H9c2 cells assessed as reduction in ANP mRNA expression at 1 uM after 6 hrs; assay type: cell-based; settings: h9c2, 6 h
# [23] = system: Rattus norvegicus; assay: Cardiotoxicity in Sprague-Dawley rat assessed as increase in Bax gene expression level administered as cumulative dose of 15 mg/kg, ip divided into 6 injections for 2 weeks followed by compound washout period of 14 days by RT-PCR analysis relative to control; assay type: toxicity, organism-based; set-up: dose 15 mg/kg, route intraperitoneal; settings: in vivo, 336 h
# [24] = system: CYP2E1; assay: Cardiotoxicity in Sprague-Dawley rat assessed as increase in CYP2E1 gene expression level administered as cumulative dose of 15 mg/kg, ip divided into 6 injections for 2 weeks followed by compound washout period of 14 days by RT-PCR analysis relative to control; assay type: toxicity, organism-based; set-up: dose 15 mg/kg, route intraperitoneal; settings: heart
# [25] = system: Rattus norvegicus; assay: Toxicity in Sprague-Dawley rat assessed as CYP4F1 gene expression in liver administered as cumulative dose of 15 mg/kg, ip divided into 6 injections for 2 weeks followed by compound washout period of 14 days by RT-PCR analysis relative to control; assay type: organism-based; set-up: dose 15 mg/kg, route intraperitoneal; settings: in vivo, 336 h
# [26] = system: Rattus norvegicus; assay: Induction of omega-1 hydroxylase-mediated arachidonic acid metabolism in Sprague-Dawley rat heart microsomes assessed as 19-HETE formation administered as cumulative dose of 15 mg/kg, ip divided into 6 injections for 2 weeks followed by compound washout period of 14 days by LC-ESI-MS analysis relative to control; assay type: ADME, organism-based; set-up: dose 15 mg/kg, route intraperitoneal; settings: 336 h
# [27] = system: Rattus norvegicus; assay: Toxicity in Sprague-Dawley rat assessed as CYP4F4 gene expression in liver administered as cumulative dose of 15 mg/kg, ip divided into 6 injections for 2 weeks followed by compound washout period of 14 days by RT-PCR analysis relative to control; assay type: organism-based; set-up: dose 15 mg/kg, route intraperitoneal; settings: in vivo, 336 h
compound,measurement,setting,value
COc1cccc2c1C(=O)c1c(O)c3c(c(O)c1C2=O)C[C@@](O)(C(=O)CO)C[C@@H]3O[C@H]1C[C@H](N)[C@H](O)[C@H](C)O1 [DOXORUBICIN],Activity,[1],Non-toxic
same,Activity,[2],Toxic
same,Activity,[3],Non-toxic
same,fold induction at 336 h,[4],2.8
same,Activity,[5],Non-toxic
same,fold induction at 336 h,[6],2
same,fold induction at 15 mg/kg,[7],3.5
same,fold induction at 15 mg/kg,[8],2.2
same,fold induction at 336 h,[9],1.9
same,Activity,[10],Non-toxic
same,fold induction at 15 mg/kg,[11],2.9
same,Activity,[12],Non-toxic
same,Activity,[13],Non-toxic
same,fold induction at 336 h,[14],1.8
same,Activity,[15],Non-toxic
same,Activity,[16],Non-toxic
same,Ratio,[17],0.74
same,Activity,[18],Non-toxic
same,Activity,[19],Non-toxic
same,Activity,[20],Non-toxic
same,Activity,[21],Toxic
same,Activity,[22],Non-toxic
same,Ratio,[23],1.9
same,fold induction at 336 h,[24],1.8
same,Activity,[25],Non-toxic
same,Activity,[26],Non-toxic
same,Activity,[27],Non-toxic
